Measured values published in US9980943B2, “Methods of treating muscular dystrophy” (BOARD OF REGENTS OF THE NEVADA SYSTEM OF HIGHER EDUCATION, …, priority 2013, dated 2018).

Legend:
Type in all cases: cell-based, mouse
[1] = tested on: α7 integrin (LacZ reporter in α7+/LacZ myotubes); assay: Myotube α7 integrin FDG assay (Burkin assay in myotubes, 96-well); conditions: myotubes; for fold induction at 0.5 µM / fold induction at 1 µM / fold induction at 5 µM / fold induction at 10 µM / fold induction at 20 µM / fold induction at 40 µM: Mus musculus, Myotube, read-out: Burkin Assay in Myotubes, α7 integrin LacZ reporter signal relative to DMSO
[2] = tested on: β-galactosidase in CMV-LacZ C2C12 myotubes; assay: CMV-LacZ secondary screen in C2C12 myotubes (β-Gal stabilizing assay); conditions: for fold induction at 5 µM / fold induction at 10 µM / fold induction at 20 µM / fold induction at 40 µM: Mus musculus; for fold induction at 5 µM: C2C12, read-out: CMV-LACZ in Myotubes, signal relative to DMSO, 5 uM; for fold induction at 5 µM / fold induction at 10 µM / fold induction at 20 µM / fold induction at 40 µM / CMV-LACZ in Myotubes, signal relative to DMSO: C2C12 CMV-LacZ myotubes, fold relative to DMSO; for fold induction at 10 µM: C2C12, read-out: CMV-LACZ in Myotubes, signal relative to DMSO, 10 uM; for fold induction at 20 µM: C2C12, read-out: CMV-LACZ in Myotubes, signal relative to DMSO, 20 uM; for fold induction at 40 µM: C2C12, read-out: CMV-LACZ in Myotubes, signal relative to DMSO, 40 uM; for CMV-LACZ in Myotubes (β-galactosidase activity relative to DMSO): CMV-LacZ C2C12 myotubes, 96-well format
In short: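 A secondary screen identifies compounds that stabilize β-gal independently of the native promoter, using CMV-LacZ C2C12 cells. Curves span 0.5–40 μM at six levels, in duplicate.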

[3] = tested on: α7 integrin (LacZ reporter in α7βgal+/− myoblasts); assay: Myoblast α7+/LacZ integrin FDG assay (Burkin assay in myoblasts, 96-well); conditions: α7+/LacZ myoblasts, 96-well; for fold induction at 0.5 µM / fold induction at 1 µM / fold induction at 5 µM / fold induction at 10 µM / fold induction at 20 µM / fold induction at 40 µM: Mus musculus, Myoblast, 48 h, read-out: Burkin Assay in Myoblasts, signal relative to DMSO

| SMILES | fold induction at 0.5 µM ([1]; 0.5 uM) | fold induction at 1 µM ([1]; 1 uM) | fold induction at 5 µM ([1]; 5 uM) | fold induction at 10 µM ([1]; 10 uM) | fold induction at 20 µM ([1]; 20 uM) | fold induction at 40 µM ([1]; 40 uM) | fold induction at 5 µM [2] | fold induction at 10 µM [2] | fold induction at 20 µM [2] | fold induction at 40 µM [2] | fold induction at 0.5 µM ([3]; 0.5 uM) | fold induction at 1 µM ([3]; 1 uM) | fold induction at 5 µM ([3]; 5 uM) | fold induction at 10 µM ([3]; 10 uM) | fold induction at 20 µM ([3]; 20 uM) | fold induction at 40 µM ([3]; 40 uM) | Burkin Assay in Myotubes (signal relative to DMSO) ([1]; 0.5 uM) | Burkin Assay in Myotubes (signal relative to DMSO) ([1]; 1 uM) | Burkin Assay in Myotubes (signal relative to DMSO) ([1]; 5 uM) | Burkin Assay in Myotubes (signal relative to DMSO) ([1]; 10 uM) | other results |
| --- | --- | --- | --- | --- | --- | --- | --- | --- | --- | --- | --- | --- | --- | --- | --- | --- | --- | --- | --- | --- | --- |
| COc1cc(NC(=O)C2C3C=CC(C3)C2C(=O)O)ccc1NC(=O)c1ccccc1 (stereo not shown) [MLS001125488-01] | 1.03 | 1.15 | 1.12 | 1.32 | 1.14 | 1.22 | 0.747 | 0.968 | 1.18 | 0.872 | 0.933 | 0.976 | 0.99 | 0.879 | 0.907 | 0.923 | – | – | – | – | – |
| COc1ccc(CCNC(=O)c2nn(C)c3c2CS(=O)(=O)c2ccccc2-3)cc1OC [MLS001117140-01] | 0.932 | 1.12 | 1.09 | 1.37 | 1.09 | 1.06 | 0.951 | 1.12 | 1.38 | 1.17 | 1.03 | 1.07 | 0.909 | 0.901 | 0.922 | 0.942 | – | – | – | – | – |
| Cc1ccc(-c2onc3ccc(C(=O)/C=C/N(C)C)cc23)cc1 [MLS001166156-01] | – | – | – | – | – | – | – | – | – | – | – | – | – | – | – | – | 1.001 | 0.8521 | 1.07 | 0.7592 | Burkin Assay in Myotubes (signal relative to DMSO) ([1]; 20 uM): 0.8218; Burkin Assay in Myotubes (signal relative to DMSO) ([1]; 40 uM): 0.4461; CMV-LACZ in Myotubes (β-galactosidase activity relative to DMSO) ([2]; 5 uM): 0.8707; CMV-LACZ in Myotubes (β-galactosidase activity relative to DMSO) ([2]; 10 uM): 0.9198; CMV-LACZ in Myotubes (β-galactosidase activity relative to DMSO) ([2]; 20 uM): 0.7796; CMV-LACZ in Myotubes (β-galactosidase activity relative to DMSO) ([2]; 40 uM): 0.5227; Burkin Assay in Myoblasts, value relative to DMSO ([3]; 0.5 uM): 0.8005; Burkin Assay in Myoblasts, value relative to DMSO ([3]; 1 uM): 0.9085; Burkin Assay in Myoblasts, value relative to DMSO ([3]; 5 uM): 0.7543; Burkin Assay in Myoblasts, value relative to DMSO ([3]; 10 uM): 0.7601; Burkin Assay in Myoblasts, value relative to DMSO ([3]; 20 uM): 0.7571; Burkin Assay in Myoblasts, value relative to DMSO ([3]; 40 uM): 0.3481 |
| COc1cc(Cl)cc(CN2CCC(CCC(=O)NC3CC3)CC2)c1OC [MLS001162872-01] | – | – | – | – | – | – | – | – | – | – | – | – | – | – | – | – | 1.13 | 1.051 | 0.8369 | 1.031 | Burkin Assay in Myotubes (signal relative to DMSO) ([1]; 20 uM): 1.034; Burkin Assay in Myotubes (signal relative to DMSO) ([1]; 40 uM): 0.8876; CMV-LACZ in Myotubes, signal relative to DMSO ([2]; 5 uM): 0.7855; CMV-LACZ in Myotubes, signal relative to DMSO ([2]; 10 uM): 1.084; CMV-LACZ in Myotubes, signal relative to DMSO ([2]; 20 uM): 1.061; CMV-LACZ in Myotubes, signal relative to DMSO ([2]; 40 uM): 0.9794; Burkin Assay in Myoblasts, value relative to DMSO ([3]; 0.5 uM): 0.9547; Burkin Assay in Myoblasts, value relative to DMSO ([3]; 1 uM): 0.949; Burkin Assay in Myoblasts, value relative to DMSO ([3]; 5 uM): 0.9025; Burkin Assay in Myoblasts, value relative to DMSO ([3]; 10 uM): 0.904; Burkin Assay in Myoblasts, value relative to DMSO ([3]; 20 uM): 0.783; Burkin Assay in Myoblasts, value relative to DMSO ([3]; 40 uM): 0.7773 |
